Measurements reported in US20030092684A1, “Compositions and methods for treating hemorrhagic virus infections and other disorders” (priority 1999, published 2003).
Several values for one entry are separate records, joined by “and”; a condition that tells them apart may be missing. Equal values may be shown once. Read-outs that look alike come from different tables or passages of the source.

Legend:
Mononuclear human cells = assay: In vitro activation of mononuclear human cells by antibiotics: IL-1RA and sTNFrI production; assay type: cell-based; settings: 0.06 mg/ml, activation for 2 hours
[1] = system: Marburg virus strain Popp; set-up: species or system guinea-pigs; settings: guinea pig, in vivo
[2] = 7 day period without viral infection
[3] = 58 mg/kg i.m. during 17 day period without virus injection
TNF-α and IL-1β [4] = assay: Serum TNF and IL-1 in Dengue infected mice (Example 4); assay type: in vivo, BALB/c mice; settings: for IL-1 / TNF: 20 mg/kg orally twice per day from day -3 until day 8
IL-1RA and sTNFrl = IL-1RA and sTNFrl in human donor serum after oral antibiotic stimulation; assay type: in vivo; settings: after stimulation, 2 persons, on the 24th hour
TNF-α and IL-1β [5] = assay: Serum TNF-α and IL-1β in Dengue infected mice (Example 5); assay type: in vivo, BALB/c mice; settings: 100 μg orally twice per day from day 3 until day 8
Dengue virus, type 2 = system: Dengue virus, type 2; set-up: species or system BALB/c mice; settings: mouse, in vivo, po
[6] = system: mice with the SEB-induced septic shock; set-up: species or system Balb/c mice; settings: mouse, in vivo
Dengue virus type 2 = assay: Dengue virus infection treated with tetracycline compounds (Example 4): mortality; assay type: in vivo, BALB/c mice; settings: 20 mg/kg orally twice per day from day -3 until day 8
[7] = system: Lassa virus strain Josiah; set-up: species or system BALB/c mice; settings: mouse, in vivo

Question: Which IL-1RA (Mononuclear human cells; 0 hours) does the source give for CN(C)C1C(O)=C(C(N)=O)C(=O)C2(O)C(O)=C3C(=O)c4c(O)cccc4C(C)(O)C3CC12 (stereo not drawn) [Tetracycline, 4-dimethylamino-1,4,4a,5,5a,6-11,12a-octahydro-3,6,10,12,12a-pentahydroxy-6-methyl-1,11-dioxo-2-naphthacenecarboxamide] here?
Answer: The IL-1RA was 22 + 1.4 pg/ml.

Question: What about the sTNFrI (Mononuclear human cells; 0 hours) of the same molecule?
Answer: The sTNFrI was 19 + 1.2 pg/ml.

Question: And the IL-1RA (Mononuclear human cells; 3 hours)?
Answer: The IL-1RA was 86 + 4.6 pg/ml.

Question: And the sTNFrI (Mononuclear human cells; 3 hours)?
Answer: Its sTNFrI is 185 + 8.4 pg/ml.

Question: What about the IL-1RA (Mononuclear human cells; 6 hours) of the same molecule?
Answer: The IL-1RA was 186 + 8.2 pg/ml.

Question: And the sTNFrI (Mononuclear human cells; 6 hours)?
Answer: Its sTNFrI is 204 + 9.2 pg/ml.

Question: And the IL-1RA (Mononuclear human cells; 24 hours)?
Answer: Its IL-1RA is 140 + 7.6 pg/ml.

Question: And the sTNFrI (Mononuclear human cells; 24 hours)?
Answer: The sTNFrI was 201 + 8.6 pg/ml.

Question: And the “m.t.d. (mean time to death)” value [1]?
Answer: The value was 8.75 and 8.06 and 7.91.

Question: What about the “toxicity to control groups” value [2] of the same molecule?
Answer: The value was “not toxic”.

Question: What about the death ([2]; of 20 mice) of the same molecule?
Answer: The death was 0.

Question: And the survival ([2]; of 20 mice)?
Answer: The survival was 20.

Question: What about the “toxicity to control groups” value [3] of the same molecule?
Answer: The value was “not toxic”.

Question: And the survival ([3]; of 6 guinea pigs)?
Answer: The survival was 6.

Question: What about the “increase of the concentration of TNF” value (TNF-α and IL-1β [4]; 20 mg/kg orally twice per day) of the same molecule?
Answer: The value was 2 fold.

Question: What about the “level of the cytokines in the serum versus control A2 group” value (TNF-α and IL-1β [4]; 20 mg/kg twice per day from day -3 until day 8) of the same molecule?
Answer: Its value is “statistically lower”.

Question: What about the “increase of the concentration of IL-1” value (TNF-α and IL-1β [4]; by day 5 of the disease, 20 mg/kg orally twice per day) of the same molecule?
Answer: The value was 10 fold.

Question: And the IL-1 (TNF-α and IL-1β [4]; day 0)?
Answer: The IL-1 was 6.8 pg/mL.

Question: And the IL-1 (TNF-α and IL-1β [4]; day 1)?
Answer: Its IL-1 is 10.8 pg/mL.

Question: And the IL-1 (TNF-α and IL-1β [4]; day 3)?
Answer: The IL-1 was 46.8 pg/mL.

Question: And the TNF (TNF-α and IL-1β [4]; day 3)?
Answer: Its TNF is 14.0 pg/mL.

Question: What about the IL-1 (TNF-α and IL-1β [4]; day 5) of the same molecule?
Answer: Its IL-1 is 66.0 pg/mL.

Question: And the TNF (TNF-α and IL-1β [4]; day 5)?
Answer: Its TNF is 28.8 pg/mL.

Question: And the IL-1 (TNF-α and IL-1β [4]; day 6)?
Answer: The IL-1 was 56.8 pg/mL.

Question: What about the TNF (TNF-α and IL-1β [4]; day 6) of the same molecule?
Answer: Its TNF is 38.4 pg/mL.

Question: And the IL-1 (TNF-α and IL-1β [4]; day 7)?
Answer: The IL-1 was 10.2 pg/mL.

Question: And the TNF (TNF-α and IL-1β [4]; day 7)?
Answer: The TNF was 33 pg/mL.

Question: What about the IL-1 (TNF-α and IL-1β [4]; day 12) of the same molecule?
Answer: The IL-1 was 7.4 pg/mL.

Question: What about the TNF (TNF-α and IL-1β [4]; day 12) of the same molecule?
Answer: Its TNF is 19.6 pg/mL.

Question: What about the IL-1 (TNF-α and IL-1β [4]; day -1) of the same molecule?
Answer: Its IL-1 is 6.8 pg/mL.

Question: What about the TNF (TNF-α and IL-1β [4]; day -1) of the same molecule?
Answer: The TNF was 18.4 pg/mL.

Question: What about the “IL-1RA in the donor serum” value (IL-1RA and sTNFrl) of the same molecule?
Answer: Its value is 130 ± 6.8 pg/mL.

Question: And the “sTNFrl in the donor serum” value (IL-1RA and sTNFrl)?
Answer: The value was 580 ± 18.2 pg/mL.

Question: And the IL-1 (TNF-α and IL-1β [5]; day 0)?
Answer: The IL-1 was 6.0 pg/mL.

Question: And the TNF (TNF-α and IL-1β [5]; day 0)?
Answer: The TNF was 7.8 pg/mL.

Question: And the IL-1 (TNF-α and IL-1β [5]; day 1)?
Answer: Its IL-1 is 12.0 pg/mL.

Question: What about the TNF (TNF-α and IL-1β [5]; day 1) of the same molecule?
Answer: Its TNF is 13.8 pg/mL.

Question: And the IL-1 (TNF-α and IL-1β [5]; day 3)?
Answer: Its IL-1 is 36.0 pg/mL.

Question: And the TNF (TNF-α and IL-1β [5]; day 3)?
Answer: Its TNF is 38.2 pg/mL.

Question: What about the IL-1 (TNF-α and IL-1β [5]; day 5) of the same molecule?
Answer: The IL-1 was 48.6 pg/mL.

Question: What about the TNF (TNF-α and IL-1β [5]; day 5) of the same molecule?
Answer: The TNF was 56.2 pg/mL.

Question: What about the IL-1 (TNF-α and IL-1β [5]; day 6) of the same molecule?
Answer: The IL-1 was 62.4 pg/mL.

Question: What about the TNF (TNF-α and IL-1β [5]; day 6) of the same molecule?
Answer: The TNF was 156.8 pg/mL.

Question: And the IL-1 (TNF-α and IL-1β [5]; day 12)?
Answer: Its IL-1 is 15.6 pg/mL.

Question: And the TNF (TNF-α and IL-1β [5]; day 12)?
Answer: The TNF was 18.0 pg/mL.

Question: And the IL-1 (TNF-α and IL-1β [5]; day 21)?
Answer: The IL-1 was 5.8 pg/mL.

Question: What about the TNF (TNF-α and IL-1β [5]; day 21) of the same molecule?
Answer: The TNF was 7.4 pg/mL.

Question: What about the Survived/died (Dengue virus, type 2) of the same molecule?
Answer: Its Survived/died is 9/11.

Question: And the “m.t.d. (average lifetime)” value (Dengue virus, type 2)?
Answer: Its value is 8.40 ± 0.73.

Question: And the “mice survived 96 hours postinduction” value [6]?
Answer: The value was “About 20%”.

Question: And the Survival/total amount (Dengue virus type 2; day 0)?
Answer: The Survival/total amount was 20/20.

Question: What about the Survival/total amount (Dengue virus type 2; day 1) of the same molecule?
Answer: The Survival/total amount was 20/20.

Question: What about the Survival/total amount (Dengue virus type 2; day 3) of the same molecule?
Answer: The Survival/total amount was 20/20.

Question: What about the Survival/total amount (Dengue virus type 2; day 5) of the same molecule?
Answer: Its Survival/total amount is 16/20.

Question: What about the Survival/total amount (Dengue virus type 2; day 6) of the same molecule?
Answer: Its Survival/total amount is 11/20.

Question: What about the Survival/total amount (Dengue virus type 2; day 7) of the same molecule?
Answer: Its Survival/total amount is 8/20.

Question: What about the Survival/total amount (Dengue virus type 2; day 12) of the same molecule?
Answer: Its Survival/total amount is 8/20.

Question: What about the Survival/total amount (Dengue virus type 2; day -1) of the same molecule?
Answer: The Survival/total amount was 20/20.

Question: And the survival [7]?
Answer: The survival was 80%.

Question: What about the death ([7]; 58 mg/kg) of the same molecule?
Answer: The death was 4.
